According to publication PMC9228468, “Relevance of Therapeutic Drug Monitoring of Tyrosine Kinase Inhibitors in Routine Clinical Practice: A Pilot Study” (Pharmaceutics, 2022):

Key:
[1] = Groups of patients according to exposure and toxicity; type: in vivo, human; conditions: for % patients, Group 1 / % patients, Group 3: Drug concentrations above target level: No; for % patients, Group 1 / % patients, Group 2: Toxicities: No; for % patients, Group 3 / % patients, Group 4: Toxicities: Yes; for % patients, Group 2 / % patients, Group 4: Drug concentrations above target level: Yes
[2] = Therapeutic drug monitoring: plasma levels by HPLC-UV, dose-normalized plasma concentrations; type: in vivo, human
Procedure: (§1) Monitoring was carried out in all cases after at least fifteen days from the start of treatment, when the plasma levels of the drug were considered at steady state. Blood samples were extracted just before ingestion of the tablet/s and at different times after ingestion. The drug was administered in the fasted state and patients were told they could eat food after the second blood sample was drawn. Sampling times, which are defined for each drug in Table 1, were selected based on the optimal sampling theory and pharmacokinetic models previously published in the scientific literature. […] The total blood volume extracted was between 4 and 5 mL for each sample. All samples were centrifuged after extraction at 3500 r.p.m. for 10 min at room temperature and the plasma obtained was frozen at −80 °C until bioanalysis.
Bioanalysis was carried out using high-performance liquid chromatography (HPLC) coupled with ultraviolet (UV) detection.
As the stationary phase, an Ultrabase® C18 chromatographic column, 4.6 mm in diameter by 150 mm in length, made of stainless steel and filled with a C18 reversed-phase siliceous substrate with a particle size of 5 µm, was used. A mixture of 40% of 0.02 M ammonium acetate, pH = 7, and 60% acetonitrile: methanol at a ratio of 70:30 (v/v) was used as the mobile phase. The linearity of the technique included a concentration range of 0.05–7.5 µg/mL. The limit of quantification was 0.5 µg/mL. Solid–liquid extraction was used and the analysis time was 9 min.
The stationary phase used was an Ultrabase® C18 chromatographic column, 4.6 mm in diameter by 150 mm in length, made of stainless steel and filled with a C18 reversed-phase siliceous substrate with a particle size of 5 µm. The mobile phase used was a 40% mixture of 0.02 M ammonium acetate, pH = 7, and 60% acetonitrile: methanol at a ratio of 70:30 (v/v). The linearity of the technique included a concentration range of 0.05–5 µg/mL. The limit of quantification was 0.5 µg/mL. Solid–liquid extraction was used and the analysis time was 10 min.
(§2) The stationary phase used was a Kromasil® C18 chromatographic column, 4.6 mm in diameter by 150 mm in length, made of stainless steel and filled with a C18 reversed-phase siliceous substrate with a particle size of 5 µm. The mobile phase used was a mixture of acetonitrile and 0.02 M ammonium acetate, pH = 3.5, at a ratio of 53:47 (v/v). The linearity of the technique included a concentration range of 0.02–10 µg/mL. The limit of quantification was 0.2 µg/mL. Liquid–liquid extraction was used and the analysis time was 12 min [51].
as §2, with “0.1–20” for “0.02–10”, “0.1” for “0.2”, “[52].” for “[51].”
The program was compiled with the DIGITAL Visual Fortran version 6.6C program. The graphics were made with the S-Plus 6.1 Professional Edition program for Windows (Insightful, Seattle, WA, USA). A one-compartment pharmacokinetic model with first-order absorption and elimination kinetics was selected to describe erlotinib plasma concentrations, as performed previously by other authors. The fixed-effect parameters estimated by the model were V (volume of distribution, L), CL (plasma clearance, L/h) and Ka (absorption constant). The model included plasma ALT concentration and age as covariates in CL, and weight in V.
The model was parameterized in terms of D1 (zero-order absorption duration), V and CL, and included the plasma concentration of α 1-acid glycoprotein as a covariate in CL. […]

[3] = TDM-guided dose adjustment recommendations per monitored cycle; type: in vivo, human; conditions: for monitored cycles with recommendation to decrease the dose: concentrations above therapeutic range; for monitored cycles with recommendation to increase the prescribed dose: concentrations below target therapeutic range; for monitored cycles with recommendation to maintain the current dose: concentrations within therapeutic range; for monitored cycles with recommendation to suspend/suppress the drug: in vivo
Procedure: Patients included in this study received drugs at doses previously established by their doctors, according to data sheet indications and clinical judgment. In all cases, drug dose was prescribed before the patient enrolled onto this study and was not affected by this study prior to enrollment.
as §1

[4] = cited from earlier work
[5] = Survival analysis (Kaplan-Meier, PFS and OS); type: in vivo, human; conditions: real-world cancer patients with TDM
Procedure: (§3) Patients’ medical records were reviewed with the aim of studying all possible factors related to the patient and the medication that may influence the evolution of the plasma concentrations of TKIs. Sociodemographic and anthropometric, pharmacological treatment, clinical, toxicity and therapeutic drug monitoring data were collected. Treatment response was determined according to the […]. Adverse events were recorded by grade according to the Common Terminology Criteria for Adverse Events version 3.0 (CTCAE v 3.0).
To assess the relationship between treatments protocols and disease progression or mortality, a Kaplan–Meier survival curve was plotted.

[6] = cited from earlier work; remark: listed apart in the source
[7] = Incidence of toxicity (CTCAE grades), first vs last monitored cycle; type: in vivo, human; conditions: for Patients with toxicity: at start of treatment; for Toxicity: RI G1: renal insufficiency grade 1 (IR G1 for sorafenib); for Toxicity: RI G2: renal insufficiency grade 2
Procedure: as §3
To compare the variation in categorical variables (rash, diarrhea, fatigue, abdominal pain, hypertension, and mucositis) between the first and the last monitored cycle, the non-parametric chi-square test was performed.

[8] = last monitored cycle, after TDM and dose adjustments
[9] = phase II study of 57 NSCLC patients
[10] = last monitored cycle, after TDM and dose adjustment

SMILES | % patients, Group 1 [1] | % patients, Group 3 [1] | % patients, Group 2 [1] | % patients, Group 4 [1] | mean interpatient variability in dose-normalized plasma concentrations (CV) ([2]; first monitored cycle) | mean interpatient variability in dose-normalized plasma concentrations (CV) [2, 8] | monitored cycles with recommendation to decrease the dose [3] | monitored cycles with recommendation to increase the prescribed dose [3] | monitored cycles with recommendation to maintain the current dose [3] | monitored cycles with recommendation to suspend/suppress the drug [3] | Overall Survival, Median [5] | Progression-Free Survival, Median [5] | Patients with toxicity [7] | Toxicity: Anemia G1 ([7]; in vivo) | Toxicity: Anemia G2 ([7]; in vivo) | Toxicity: Diarrhea G2 ([7]; in vivo) | Toxicity: Mucositis G3 ([7]; in vivo) | Toxicity: Skin rash G1 ([7]; in vivo) | patients who developed toxicity at the start of treatment ([7]; in vivo) | Toxicity: RI G1 [7] | other results
C#Cc1cccc(Nc2ncnc3cc(OCCOC)c(OCCOC)cc23)c1 [Erlotinib, erlotinib] | 18.2% | 22.7% | 13.6% | 45.5% | 46.2% | 44% | 3.6% | 38.2% | 54.5% | 3.6% | 32 Months | 8 Months | 9 (45.4) n. (%) | 4 (18.1) n. (%) | 2 (9.1) n. (%) | 3 (13.6) n. (%) | 1 (4.5) n. (%) | 5 (22.7) n. (%) | 45.4% | 9 (45.4) n. (%) | OS ([4]; 26 NSCLC patients): 16.9 months; PFS ([4]; 26 NSCLC patients): 6.3 months; OS of patients with grade 1 rash [4, 9]: 8.5 months; OS of patients with grade 2 rash [4, 9]: 19.6 months; OS of patients without rash [4, 9]: 1.5 months; fraction of a single dose eliminated in the urine [6]: 9%; patients with plasma concentrations below the target ([6]; target 500 mg/L, lung cancer patients): 11.1%; patients with grade 2 skin rash ([7]; first monitored cycle): 13.6%; patients with grade 3 mucositis ([7]; first monitored cycle): 4.5%; patients with grade 3 thrombocytopenia ([7]; first monitored cycle): 4.5%; Toxicity: Fatigue G2 ([7]; in vivo): 2 (9.1) n. (%); Toxicity: Skin rash G2 ([7]; in vivo): 3 (13.6) n. (%); Toxicity: Skin rash G3 ([7]; in vivo): 3 (13.6) n. (%); analytical parameters related to toxicity and defined toxicities, first vs last monitored cycle ([7]; in vivo): no significant differences; patients with grade 2 skin rash ([7]; last monitored cycle): 14.3%; patients with grade 3 mucositis ([7]; last monitored cycle): 0%; patients with grade 3 rash ([7]; last monitored cycle): 7.1%; patients with grade 3 thrombocytopenia ([7]; last monitored cycle): 0%; Toxicity: RI G2 [7]: 4 (18.1) n. (%); Toxicity: Thromb. G3 ([7]; trombopenia grade 3): 1 (4.5) n. (%)
Cc1ccc(NC(=O)c2ccc(CN3CCN(C)CC3)cc2)cc1Nc1nccc(-c2cccnc2)n1 [Imatinib, imatinib] |  |  |  |  | 48.91% | 50.84% |  |  |  |  |  |  |  |  |  |  |  |  |  |  | mean interpatient variability in dose-normalized plasma concentrations (CV) ([2]; first monitored cycle, listed as imatinib): 48.9%; mean interpatient variability in dose-normalized plasma concentrations (CV) ([2]; last monitored cycle, after TDM and dose adjustments, listed as imatinib): 50.8%
CS(=O)(=O)CCNCc1ccc(-c2ccc3ncnc(Nc4ccc(OCc5cccc(F)c5)c(Cl)c4)c3c2)o1 [Lapatinib, lapatinib] | 6.2% | 18.7% | 6.2% | 69.5% | 60.7% | 56% | 8.6% | 14.3% | 68.6% | 8.6% | 46 Months | 8 Months | 12 (75.0) n. (%) | 3 (18.7) n. (%) | 2 (12.5) n. (%) | 1 (6.2) n. (%) | 1 (6.2) n. (%) | 1 (6.2) n. (%) | 75% | 6 (37.5) n. (%) | increase in AUC with high-fat meals [6]: more than 3 fold; interpatient variability in exposure, AUC [6]: 42–117%; interpatient variability in exposure, Ctrough [6]: 55–97%; t1/2 in severe liver failure relative to normal liver function [6]: 3 fold; increase of mean AUC in patients with severe liver failure ([6]; vs normal liver function): more than 60%; toxicities detected ([7]; after performing TDM): 5 cases; toxicities detected ([7]; first monitored cycle): 25 cases; reduction of toxicity events by TDM ([7]; first vs last monitored cycle): 80%; Toxicity: Anemia G3 ([7]; in vivo): 1 (6.2) n. (%); Toxicity: Diarrhea G1 ([7]; in vivo): 2 (12.5) n. (%); Toxicity: Diarrhea G3 ([7]; in vivo): 1 (6.2) n. (%); Toxicity: Pain ([7]; in vivo): 2 (12.5) n. (%); Toxicity: Skin rash G3 ([7]; in vivo): 1 (6.2) n. (%); analytical parameters related to toxicity and defined toxicities, first vs last monitored cycle ([7]; in vivo): no significant differences; Toxicity: Neutr. G3 ([7]; neutropenia grade 3): 2 (12.5) n. (%); Toxicity: RI G2 [7]: 2 (12.5) n. (%)
CNC(=O)c1cc(Oc2ccc(NC(=O)Nc3ccc(Cl)c(C(F)(F)F)c3)cc2)ccn1 [Sorafenib, sorafenib] |  | 9.1% | 54.4% | 9.1% | 89.7% | 72.5% | 6.9% | 17.2% |  | 3.4% | 9 Months | 9 Months |  | 2 (18.2) n. (%) | 1 (9.1) n. (%) | 1 (9.1) n. (%) |  |  | 63.3% | 2 (18.2) n. (%) | dose above which gastrointestinal absorption saturates [6]: greater than 800 mg; variability in exposure between patients, AUC [6]: 12–117%; variability in exposure between patients, apparent oral Cl [6]: 13–80%; Toxicity: Abdominal pain ([7]; in vivo): 2 (18.2) n. (%); patients with anemia [7, 10]: 50%; patients with grade 3 neutropenia [7, 10]: 25%; Toxicity: Thromb. G1 ([7]; trombopenia grade 1): 1 (9.1) n. (%)
Cc1cn(-c2cc(NC(=O)c3ccc(C)c(Nc4nccc(-c5cccnc5)n4)c3)cc(C(F)(F)F)c2)cn1 [nilotinib] |  |  |  |  |  |  |  |  |  |  |  |  |  |  |  |  |  |  |  |  | increase in AUC with high-fat meals [6]: up to 80%
Cc1ccc(Nc2nccc(N(C)c3ccc4c(C)n(C)nc4c3)n2)cc1S(N)(=O)=O [pazopanib] |  |  |  |  |  |  |  |  |  |  |  |  |  |  |  |  |  |  |  |  | AUC when administered with food compared to fasted state [6]: doubled; dose above which plasma AUC does not increase ([6]; solubility limitations in the digestive tract): greater than 800 mg
